These are literature values, as cited in patent publication US20070128633A1, “Cell-free protein expression systems and methods of use thereof” (ChemBridge Research Laboratories, Inc., priority 2005, published 2007).

The subject of data set [1] is KIT variants containing 2 out of these 6 mutations. As to conditions: KIT variants with 2 of 6 catalytic domain point mutations found in seminomas; Kemmer et al. (2004).
The target in data set [2] is KIT active site mutation D816V (Homo sapiens, UniProt P10721, D816V). As to conditions: sporadic adult human mastocytosis, Ma et al. (2002).
The target in the next data set is streptavidin (Streptomyces avidinii, UniProt P22629). Particulars: tag fused to the C- or N-termini of a recombinant protein; Skerra and Schmidt (2000).
Sequence of streptavidin (P22629 25-183, species assumed): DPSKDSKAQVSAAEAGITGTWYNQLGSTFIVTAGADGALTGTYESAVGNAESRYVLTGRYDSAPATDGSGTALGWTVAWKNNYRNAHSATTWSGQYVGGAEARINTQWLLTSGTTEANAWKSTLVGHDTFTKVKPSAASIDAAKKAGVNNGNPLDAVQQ

Sequence of KIT active site mutation D816V (P10721 26-976 D816V): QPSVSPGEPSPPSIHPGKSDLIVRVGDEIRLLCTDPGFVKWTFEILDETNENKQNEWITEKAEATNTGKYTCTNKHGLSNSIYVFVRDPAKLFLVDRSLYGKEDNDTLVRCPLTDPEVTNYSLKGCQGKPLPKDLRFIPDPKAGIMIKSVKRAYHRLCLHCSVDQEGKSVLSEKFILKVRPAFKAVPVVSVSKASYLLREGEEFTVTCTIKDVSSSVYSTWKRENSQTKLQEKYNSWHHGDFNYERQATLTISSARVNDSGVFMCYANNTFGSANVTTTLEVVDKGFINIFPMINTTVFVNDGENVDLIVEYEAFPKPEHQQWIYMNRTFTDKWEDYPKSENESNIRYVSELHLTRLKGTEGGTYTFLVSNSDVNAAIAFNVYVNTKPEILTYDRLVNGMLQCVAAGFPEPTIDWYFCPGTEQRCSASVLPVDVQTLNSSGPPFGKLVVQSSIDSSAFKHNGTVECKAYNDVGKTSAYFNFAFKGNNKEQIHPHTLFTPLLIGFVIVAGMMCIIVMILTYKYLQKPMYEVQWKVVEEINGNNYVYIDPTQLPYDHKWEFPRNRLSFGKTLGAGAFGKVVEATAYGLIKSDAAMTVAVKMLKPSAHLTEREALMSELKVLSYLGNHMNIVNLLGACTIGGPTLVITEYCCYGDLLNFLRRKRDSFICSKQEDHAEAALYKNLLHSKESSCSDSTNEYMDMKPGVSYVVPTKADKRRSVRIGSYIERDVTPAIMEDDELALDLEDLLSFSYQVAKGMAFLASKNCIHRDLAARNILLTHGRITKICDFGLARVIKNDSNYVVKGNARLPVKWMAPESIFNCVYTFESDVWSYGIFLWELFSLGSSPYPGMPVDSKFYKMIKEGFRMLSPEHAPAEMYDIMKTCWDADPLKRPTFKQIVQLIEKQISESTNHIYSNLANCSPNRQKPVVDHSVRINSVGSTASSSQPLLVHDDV

As to `Cc1ccc(NC(=O)c2ccc(CN3CCN(C)CC3)cc2)cc1Nc1nccc(-c2cccnc2)n1` [imatinib], the “inhibition of KIT variants” value in data set [1] is “not inhibited”. Moreover, in data set [2], the “response to imatinib treatment” value is listed as “resistance”.

In the case of WSHPQFEK [Strep-Tag II], the Kd (in general, the constant that tells how readily two partners part at equilibrium) at streptavidin was 18 µM.
